# Reference: US20140005181A1, “SMALL MOLECULE ANTAGONISTS OF THE APELIN RECEPTOR FOR THE TREATMENT OF DISEASE” (Sanford-Burnham Medical Research Institute, priority 2012, published 2014)
# “And” between values parts separate entries of the source, which are not always exact repeats. Equal entries are not always repeated.
# Assays:
# APJ = molecular target: T1, APJ (Homo sapiens, UniProt P35414); assay: APJ DiscoveRx PathHunter β-arrestin assay (antagonism of apelin-13); format: cell-based; set-up: host or cells: Angiotensin II receptor-like 1 (AGTRL-1) Cell Line (PathHunter); conditions: for IC50: β-arrestin assay, n = 4 unless noted in parentheses, read-out: APJ Potency IC50 (μM) Ave. ± S.E.M.
# T1 sequence (P35414 1-380): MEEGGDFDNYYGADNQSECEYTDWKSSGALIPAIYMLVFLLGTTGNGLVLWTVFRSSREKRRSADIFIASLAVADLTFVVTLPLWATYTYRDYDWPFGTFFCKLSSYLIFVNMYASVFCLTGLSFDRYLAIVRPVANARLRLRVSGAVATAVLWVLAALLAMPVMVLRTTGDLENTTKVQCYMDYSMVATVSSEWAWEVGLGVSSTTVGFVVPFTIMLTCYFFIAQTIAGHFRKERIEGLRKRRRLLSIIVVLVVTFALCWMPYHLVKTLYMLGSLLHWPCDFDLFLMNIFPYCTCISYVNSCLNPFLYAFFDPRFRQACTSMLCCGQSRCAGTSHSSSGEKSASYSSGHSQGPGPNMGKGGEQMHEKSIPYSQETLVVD
# Protocol: The assay was incubated for 90 mins at room temperature, and then developed with 3 μL of detection reagent (PathHunter Detection Reagents (DiscoveRx, Cat#93-0001)) for 60 mins and luminescence read on a Perkin Elmer ViewLux.
# (§1) All assays in Table 2, with the exception of the […] counterscreen, utilize the DiscoveRx PathHunter® β-arrestin assay technology. Unlike imaging or other second messenger assays, the DiscoveRx β-arrestin assay allows for a direct measure of GPCR activation by detection of β-arrestin binding to the APJ, and in the case of the counterscreen, the AT1 receptor. […] In cells that stably express these fusion proteins, ligand stimulation results in the interaction of β-arrestin and the ProLink-tagged GPCR, forcing the complementation of the two β-galactosidase fragments and resulting in the formation of a functional enzyme that converts substrate to detectable luminescent signal.
# Assay was incubated for 90 mins at room temperature, and then developed with 3 μL of detection reagent for 60 mins and luminescence read on a Perkin Elmer ViewLux. Initial actives were retested in duplicate at the 20 μM test concentration, and reconfirmed hits retested in full dose-response for compounds from resupplied MLSMR DMSO stock solutions.
# [1] = molecular target: T2, Angiotensin receptor 1 (AT1) (Homo sapiens, UniProt P30556); assay: AT1 DiscoveRx PathHunter β-arrestin counterscreen (antagonism of angiotensin II); format: cell-based; conditions: β-arrestin assay, n = 4 unless noted in parentheses; read-out: AT1 Potency IC50 (μM) Ave. ± S.E.M.
# T2 construct: host or cells: Angiotensin receptor 1 (AT1) Cell Line (PathHunter)
# T2 sequence (P30556 1-359): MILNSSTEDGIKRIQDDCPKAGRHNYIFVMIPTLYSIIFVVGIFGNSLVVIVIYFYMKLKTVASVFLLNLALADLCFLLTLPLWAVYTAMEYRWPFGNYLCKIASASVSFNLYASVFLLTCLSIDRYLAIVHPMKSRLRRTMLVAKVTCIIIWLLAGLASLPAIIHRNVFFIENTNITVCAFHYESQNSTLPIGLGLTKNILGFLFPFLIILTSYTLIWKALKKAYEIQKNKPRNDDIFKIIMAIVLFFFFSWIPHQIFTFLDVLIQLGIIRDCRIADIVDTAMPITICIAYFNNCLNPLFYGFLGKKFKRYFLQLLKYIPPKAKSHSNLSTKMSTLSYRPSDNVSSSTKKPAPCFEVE
# Excerpt: as §1
# Next, varying volumes of stock test compounds in DMSO were transferred to each well to achieve appropriate dose response concentrations and range. DMSO was backfilled into each test compound well to a total volume of 80 nL to achieve equal concentration of DMSO in all wells. This was followed by an addition of 1 μL of 300 nM reference agonist, Angiotensin II, to the negative and test compound wells, and 1 μL of assay media to positive control wells. The assay was incubated for 90 mins at room temperature, and then developed with 3 μL of detection reagent for 60 mins and luminescence read on a Perkin Elmer ViewLux.
Structure (SMILES),SI = Selectivity Index: (IC50 AT1)/(IC50 APJ) (APJ),IC50 (APJ),IC50 [1] [µM]
O=C(Oc1coc(CSc2ncccn2)cc1=O)c1ccc(Cl)c([N+](=O)[O-])c1 [Compound 2],>13,6.2 ± 0.77 µM,
Cc1ccc(C(=O)Oc2coc(CSc3ncccn3)cc2=O)cc1[N+](=O)[O-] [Compound 3],>11 and >7.2,7.25 µM and 10.9 µM,
O=C(Oc1coc(CSc2ncccn2)cc1=O)c1cccc([N+](=O)[O-])c1 [Compound 4],,75.7 µM,
O=C(Oc1coc(CSc2ncccn2)cc1=O)c1ccc(Cl)cc1 [Compound 5],,54.5 µM,
N#Cc1ccc(C(=O)Oc2coc(CSc3ncccn3)cc2=O)cc1 [Compound 7],>12 and >8,6.59 µM and 9.77 µM,> 79
O=C(Oc1coc(CSc2ncccn2)cc1=O)c1ccc(C(F)(F)F)cc1 [Compound 8],,29 µM,
O=C(Oc1coc(CSc2ncccn2)cc1=O)c1ccc(Br)cc1 [Compound 9],,18.2 µM,
O=C(Oc1coc(CSc2ncccn2)cc1=O)c1cc([N+](=O)[O-])ccc1Cl [Compound 21],,51 µM,60.1 ± 1.35
Cc1c(C(=O)Oc2coc(CSc3ncccn3)cc2=O)cccc1[N+](=O)[O-] [Compound 22],,72.2 µM,
Cc1ccnc(SCc2cc(=O)c(OC(=O)c3ccc(C)c([N+](=O)[O-])c3)co2)n1 [Compound 30],>17,4.7 µM,
Cc1ccnc(SCc2cc(=O)c(OC(=O)c3cccc([N+](=O)[O-])c3)co2)n1 [Compound 31],,59.2 µM,
Cc1ccnc(SCc2cc(=O)c(OC(=O)c3ccc([N+](=O)[O-])cc3)co2)n1 [Compound 33],>25 and >23,3.11 µM and 4.32 µM,
Cc1ccnc(SCc2cc(=O)c(OC(=O)c3ccc(C#N)cc3)co2)n1 [Compound 34],>9 and >7,8.51 µM and 11.5 µM,
Cc1ccnc(SCc2cc(=O)c(OC(=O)c3ccc(C(F)(F)F)cc3)co2)n1 [Compound 35],,20.6 µM,
Cc1ccnc(SCc2cc(=O)c(OC(=O)c3ccc(S(=O)(=O)N4CCCC4)cc3)co2)n1 [Compound 39],,39.9 ± 8.65 µM,
Cc1ccnc(SCc2cc(=O)c(OC(=O)c3cc(Cl)ccc3[N+](=O)[O-])co2)n1 [Compound 40],,58.8 µM,
Cc1ccnc(SCc2cc(=O)c(OC(=O)c3cc([N+](=O)[O-])ccc3Cl)co2)n1 [Compound 41],,74.1 µM,
Cc1ccnc(SCc2cc(=O)c(OC(=O)c3ccccc3Cl)co2)n1 [Compound 42],,,> 79
Cc1cccc(C(=O)Oc2coc(CSc3nccc(C)n3)cc2=O)c1 [Compound 44],,> 79 µM,> 79
Cc1ccnc(SCc2cc(=O)c(OC(=O)c3ccccc3C)co2)n1 [Compound 46],,> 79 µM,> 79
Cc1cc(C)nc(SCc2cc(=O)c(OC(=O)c3ccc(Cl)c([N+](=O)[O-])c3)co2)n1 [Compound 49],>15,5.45 ± 1.47 µM,> 79

Structure (SMILES),SI = Selectivity Index: (IC50 AT1)/(IC50 APJ) (APJ),IC50 (APJ),IC50 [1] [µM]
Cc1cc(C)nc(SCc2cc(=O)c(OC(=O)c3ccc(C)c([N+](=O)[O-])c3)co2)n1 [Compound 50],>3,25.3 ± 5.8 µM,> 79
Cc1cc(C)nc(SCc2cc(=O)c(OC(=O)c3ccc(S(=O)(=O)N(C)C)cc3)co2)n1 [Compound 51],,> 79 µM,> 79
Cc1cc(C)nc(SCc2cc(=O)c(OC(=O)c3cc(Cl)ccc3[N+](=O)[O-])co2)n1 [Compound 52],,> 79 µM,49.7 ± 6.74
Cc1cc(C)nc(SCc2cc(=O)c(OC(=O)c3cc([N+](=O)[O-])ccc3Cl)co2)n1 [Compound 53],,44.5 µM,49.7 ± 6.74
Cc1cc(C)nc(SCc2cc(=O)c(OC(=O)c3cccc([N+](=O)[O-])c3C)co2)n1 [Compound 54],,> 79 µM,> 79
Cc1cc(C)nc(SCc2cc(=O)c(OC(=O)c3ccc(-c4nccs4)cc3)co2)n1 [Compound 55],,> 79 µM,> 79
O=c1cc(CSc2ccccc2)occ1O [Compound 56],,> 79 µM,> 79
O=c1cc(CSc2ccc(F)cc2)occ1O [Compound 57],,> 79 µM,> 79
O=c1cc(CSc2ncccn2)occ1O [Compound 58],,> 79 µM,> 79
O=C(Oc1coc(CSc2ccc(Cl)cc2)cc1=O)c1ccc(Cl)c([N+](=O)[O-])c1 [Compound 63],>17,4.53 ± 0.66 µM,> 79
Cc1ccnc(SCc2cc(=O)c(OCc3ccccc3)co2)n1 [Compound 66],,> 79 µM,> 79
Cc1ccnc(SCc2cc(=O)c(OCc3ccc(Cl)c([N+](=O)[O-])c3)co2)n1 [Compound 67],,> 79 µM,> 79
Cc1ccnc(SCc2cc(=O)c(OC(=O)C(C)(C)C)co2)n1 [Compound 68],,> 79 µM,> 79
Cc1cc(C)nc(SCc2cc(=O)c(OS(=O)(=O)c3ccccc3)co2)n1 [Compound 71],,> 79 µM,> 79
Cc1cc(C)nc(SCc2cc(=O)c(OS(=O)(=O)c3ccc([N+](=O)[O-])cc3)co2)n1 [Compound 72],,> 79 µM,> 79
Cc1ccnc(SCc2cc(=O)c(NC(=O)c3ccccc3)co2)n1 [Compound 73],,> 79 µM,> 79
Cc1ccnc(SCc2cc(=O)c(NC(=O)c3ccc([N+](=O)[O-])cc3)co2)n1 [Compound 74],,> 79 µM,> 79
Cc1ccnc(SCc2cc(=O)c(OC(=O)c3ccco3)co2)n1 [Compound 75],,> 79 µM,> 79
Cc1ccnc(SCc2cc(=O)c(OC(=O)c3ccsc3)co2)n1 [Compound 76],,> 79 µM,> 79
Cc1ccnc(SCc2cc(=O)c(OC(=O)c3ccc([N+](=O)[O-])o3)co2)n1 [Compound 77],,> 79 µM,> 79
Cc1ccnc(SCc2cc(=O)c(OC(=O)c3cnco3)co2)n1 [Compound 78],,> 79 µM,> 79
